What was measured:
Escherichia coli [1] = experiment: Compound was tested for inhibition of Escherichia coli dioxgen consumption.; format: functional
Escherichia coli [2] = experiment: Compound was tested for inhibition of Escherichia coli growth; format: functional, organism-based

Structure (SMILES)	Dioxygen uptake rate (Escherichia coli [1])	IC50 (Escherichia coli [2])
C[N+]12CCN(CC1)C13c4c5c6c7c8c4c4c1c1c9c%10c%11c%12c(c5c5c6c6c%13c%14c%15c%16c%17c%18c%19c%20c%21c%22c%23c%24c%25c(c-%16c(c8c%25c4c%24c1c%22c9c1c%21c4c%19c(c%18%14)c8c%13c5c%12c8c4c%111)C7C%156)C%17C%23%20)C%1032 (stereo not given)	13.7 µM/min	–
O=C(O)C1(C(=O)O)C23c4c5c6c7c8c9c%10c%11c%12c%13c%14c(c-5c5c%15c%16c(c%17c%18c2c2c4c7c4c8c7c%10c8c%10c%11c%11c%13c(c%14%15)c%13c%16c%14c%17c%15c%18c%16c2c4c2c7c8c4c(c%162)c%15c2c%14c%13c%11c%10c24)C513)C61C(C(=O)O)(C(=O)O)C9%121 (stereo not given)	42.2 µM/min	100 µM
C[N+]1(C)CC23c4c5c6c7c8c4c4c2c2c9c%10c%11c%12c(c5c5c6c6c%13c%14c%15c%16c%17c%18c%19c%20c%21c%22c%23c%24c%25c(c-%16c(c8c%25c4c%24c2c%22c9c2c%21c4c%19c(c%18%14)c8c%13c5c%12c8c4c%112)C7C%156)C%17C%23%20)C%103C1.C[N+]1(C)CC23c4c5c6c7c8c4c4c2c2c9c%10c%11c%12c(c5c5c6c6c%13c%14c%15c%16c%17c%18c%19c%20c%21c%22c%23c%24c%25c(c-%16c(c8c%25c4c%24c2c%22c9c2c%21c4c%19c(c%18%14)c8c%13c5c%12c8c4c%112)C7C%156)C%17C%23%20)C%103C1.[I-].[I-] (stereo not given)	4.1 µM/min	5 µM

— ChEMBL document CHEMBL1132036, “Inhibition of E. coli growth by fullerene derivatives and inhibition mechanism” (Bioorg Med Chem Lett, 1999)
